Earlier results on one compound are cited in patent US8653135B1, “Alternating sympathomimetic therapy for the treatment of respiratory aliments” (Sovereign Pharmaceuticals, LLC, priority 2007, dated 2014).

The conditions of this data set: when given in adequate dosages.

On to `CNC[C@H](O)c1cccc(O)c1` [Phenylephrine, phenylephrine], for which the “effect on heart rate” value was “slows the heart rate”.
